Experiments:
[1] = Ketogenic activity after oral administration: plasma β-hydroxybutyrate in rats (Ranbut assay); conditions: 300 mg/kg po; for maximum increase of plasma concentration of β-hydroxybutyrate: male Sprague-Dawley rats, versus baseline (T=0)
Protocol: Male Sprague-Dawley rats (weight range 200-250 g; Clarles River, Margate, Kent) were used. The rats were group-housed in polypropylene cages at a temperature of 21±4° C., 55±20% humidity on a standard 12 hour light/dark cycle (lights on at 6.00 am). […] Animals were acclimatized to these conditions for at least one week before experimentation.
The sodium salt of D-β-hydroxybutyrate monomer (KTX 0101) was used as a comparator for assessing the bioavailability of the oligomeric compounds described here. […] Control animals received the appropriate vehicle (deionized water at 1 ml/kg) via the same route.
In Protocol A, blood (approx […]) was collected by cardiac puncture at 15, 30 and 60 minutes after dosing. In Protocol B, blood (approx 5 ml) was collected by cardiac puncture at 30, 120 and 240 minutes after dosing. In Protocol E, blood (approx 5 ml) was collected by cardiac puncture at 120 and 240 minutes after dosing. Animals were killed by CO2 asphyxiation and blood collected by cardiac puncture. Blood was placed into EDTA-coated plasma collection tubes (Sarstedt 5 ml K2E tubes) and kept on ice prior to centrifugation. Tubes were centrifuged in an Eppendorf 570R centrifuge at 4° C. for 5 minutes at 2500 rpm (1000 g). Plasma samples were initially frozen on dry ice and transferred to a −75° C. freezer until required for analysis.
Commercial clinical assay kits (Ranbut) for the determination of D-β-hydroxybutyrate were obtained from Randox Laboratories (Antrim, UK). The kit quantified NADH via the activity of β-hydroxybutyrate dehydrogenase measured as an increase in OD340 nm. An alkaline pH is necessary to drive the reaction equilibrium towards the production of NADH and acetoacetate.
This spectrophotometric assay was modified for application to a 96-well microplate format. The reaction rate was then determined from the increase in OD340 nm over a 1 minute time-course, after allowing a necessary period for the reaction rate to settle.

[2] = Dissolution in deionized water / water solubility; format: physicochemical; conditions: dissolved at 300 mg/ml in deionized water (KTX 0202: 300 mg/kg [sic])
[3] = Ketogenic activity after intravenous injection: plasma β-hydroxybutyrate in rats (Ranbut assay); format: in vivo, rat; conditions: 300 mg/kg iv; for plasma concentration of β-hydroxybutyrate (increase to): 15 min after injection
Protocol: Male Sprague-Dawley rats (weight range 200-250 g) were obtained from Charles River, Margate, Kent.
The compounds were infused via the tail vein at 300 mg/kg (1 ml/kg) over a period of 1 to 2 min.
Animals were killed 15 min later by CO2 asphyxiation and blood was collected by cardiac puncture.

| Compound | maximum increase of plasma concentration of β-hydroxybutyrate [1] [mM] | magnitude of increase in plasma β-hydroxybutyrate compared with KTX 0101 ([1]; rats) | time at which plasma β-hydroxybutyrate was still significantly elevated ([1]; rats) [h] | time at which the maximum increase of plasma β-hydroxybutyrate was observed ([1]; rats) [min] | time by which plasma β-hydroxybutyrate returned to control values ([1]; rats) [h] | time until which plasma β-hydroxybutyrate plateaued at the maximum level ([1]; rats) [min] | appearance of the solution [2] | pH of the solution [2] | plasma concentration of β-hydroxybutyrate (increase to) [3] [mM] | biological half-life relative to KTX 0101 ([1]; rats) | oral bioavailability ([1]; rats) | bioavailability by the intravenous route [3] | increase of plasma β-hydroxybutyrate at 15 min, more than KTX 0101 ([3]; 15 min) [%] |
| --- | --- | --- | --- | --- | --- | --- | --- | --- | --- | --- | --- | --- | --- |
| 1-3 butandiol, di-(tri(R)-3-hydroxybutyrate)ester [KTX 0203] | 0.4 | at least as great as those produced by KTX 0101 | – | – | – | – | – | – | – | – | – | – | – |
| C[C@@H]1CC(=O)O[C@H](C)CC(=O)O[C@H](C)CC(=O)O1 [(R)-3-β-hydroxybutyrate triolide, reference compound] | 0.5 | at least as great as that evoked by oral administration of the equivalent dose of KTX 0101 | – | – | – | – | – | – | – | – | – | – | – |
| C[C@@H](O)CC(=O)[O-].[Na+] [KTX 0101, sodium D-β-hydroxybutyrate, reference compound] | 0.4 | – | 1 | 15 | ≤ 2 | 30 | clear solution | 7.0 | 1.0 | – | – | – | – |
| CC(O)CCOC(=O)C[C@@H](C)OC(=O)C[C@@H](C)OC(=O)C[C@@H](C)O (stereo partly drawn) [KTX 0202, 1-(tri(R)-3-hydroxybutyryl-butane-1,3-diol) ester] | 0.4 | at least as great as those produced by KTX 0101 | 2 | 30 | ≤ 4 | – | slightly opaque solution | 6.0 | 1.7 | improved biological half-life relative to KTX 0101 | orally bioavailable | bioavailable when injected via the intravenous route | 60 |
